In patent publication US9045491B2, “Thienyl [3,2-D] pyrimidin-4-one compounds, preparation method, pharmaceutical compositions and use thereof” (SHANGHAI INSTITUTE OF MATERIA MEDICA, CHINESE ACADEMY OF …, priority 2011, dated 2015):

Experiments:
Format in all cases: biochemical
human DPP IV = target: T1, human DPP IV (Homo sapiens, UniProt P27487); assay: DPP IV activity screening (Ala-Pro-AMC fluorescence)
T1 construct: extracellular fragment of protease DPP IV (aa29-766); made in house; host or cells: baculovirus expression system Bac-to-Bac
Procedure, shortened: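 DPP IV activity is taken as the linear rate of fluorescence change at 460 nm. Samples are dissolved in DMSO and screened at a single concentration (e.g. 20 μg/mL). Dose-response data are fit to a variable-slope sigmoidal model with bottom and top fixed at 0 and 100.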

[1] = target: dipeptidyl peptidase 7 (DPP 7) (Homo sapiens, UniProt Q9UHL4); assay: DPP 7 activity screening; conditions: N.I. = No Inhibition
Procedure, shortened: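 Sample dissolved in DMSO, final DMSO kept at a level not affecting activity; tested at a single concentration from preliminary screening (e.g. 20 μg/mL). Dose-response data fitted to sigmoidal variable-slope model with bottom and top fixed at 0 and 100.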

human DPP 8 = target: T2, human DPP 8 (Homo sapiens, UniProt Q6V1X1); assay: DPP 8 activity screening (Ala-Pro-AMC fluorescence); conditions: N.I. = No Inhibition
T2 construct: made in house; host or cells: insect cells, baculovirus Bac-to-Bac
Procedure, shortened: (§1)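 Insect-cell baculovirus-expressed human enzymes hydrolyse Ala-Pro-AMC; AMC release monitored kinetically as fluorescence rate (ex 355/em 460 nm). Primary screen at a single concentration (e.g. 20 μg/mL); dose–response fitted to variable-slope sigmoid with bottom/top fixed at 0 and 100.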

Human DPP 9 = target: T3, Human DPP 9 (Homo sapiens, UniProt Q86TI2); assay: DPP 9 activity screening (Ala-Pro-AMC fluorescence); conditions: N.I. = No Inhibition
T3 construct: made in house; host or cells: insect cells, baculovirus Bac-to-Bac
Procedure, shortened: as §1

FAP = target: T4, FAP (Homo sapiens, UniProt Q12884); assay: FAP inhibition (Table 1); conditions: N.I. = No Inhibition
T4 sequence (Q12884 1-760): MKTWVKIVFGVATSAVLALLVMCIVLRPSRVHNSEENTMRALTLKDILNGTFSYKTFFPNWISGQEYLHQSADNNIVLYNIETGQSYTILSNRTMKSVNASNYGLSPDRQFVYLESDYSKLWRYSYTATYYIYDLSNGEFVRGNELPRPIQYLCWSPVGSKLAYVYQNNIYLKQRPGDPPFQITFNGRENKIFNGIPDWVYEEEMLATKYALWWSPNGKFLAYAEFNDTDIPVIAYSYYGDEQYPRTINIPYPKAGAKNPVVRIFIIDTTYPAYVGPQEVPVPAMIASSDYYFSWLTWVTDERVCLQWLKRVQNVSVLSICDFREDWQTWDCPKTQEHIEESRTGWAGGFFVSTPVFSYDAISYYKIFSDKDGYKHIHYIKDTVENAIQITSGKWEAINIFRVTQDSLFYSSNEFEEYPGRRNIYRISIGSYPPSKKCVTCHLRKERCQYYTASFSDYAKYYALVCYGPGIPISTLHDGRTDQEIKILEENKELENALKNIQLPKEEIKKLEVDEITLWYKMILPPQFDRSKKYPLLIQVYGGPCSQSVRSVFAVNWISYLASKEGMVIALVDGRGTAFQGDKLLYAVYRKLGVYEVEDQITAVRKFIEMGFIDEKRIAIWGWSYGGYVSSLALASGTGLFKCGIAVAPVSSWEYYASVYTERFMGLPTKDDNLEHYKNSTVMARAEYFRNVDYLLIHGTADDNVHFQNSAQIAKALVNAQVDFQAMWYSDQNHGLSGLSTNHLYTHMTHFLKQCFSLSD

T1 sequence (P27487 29-766): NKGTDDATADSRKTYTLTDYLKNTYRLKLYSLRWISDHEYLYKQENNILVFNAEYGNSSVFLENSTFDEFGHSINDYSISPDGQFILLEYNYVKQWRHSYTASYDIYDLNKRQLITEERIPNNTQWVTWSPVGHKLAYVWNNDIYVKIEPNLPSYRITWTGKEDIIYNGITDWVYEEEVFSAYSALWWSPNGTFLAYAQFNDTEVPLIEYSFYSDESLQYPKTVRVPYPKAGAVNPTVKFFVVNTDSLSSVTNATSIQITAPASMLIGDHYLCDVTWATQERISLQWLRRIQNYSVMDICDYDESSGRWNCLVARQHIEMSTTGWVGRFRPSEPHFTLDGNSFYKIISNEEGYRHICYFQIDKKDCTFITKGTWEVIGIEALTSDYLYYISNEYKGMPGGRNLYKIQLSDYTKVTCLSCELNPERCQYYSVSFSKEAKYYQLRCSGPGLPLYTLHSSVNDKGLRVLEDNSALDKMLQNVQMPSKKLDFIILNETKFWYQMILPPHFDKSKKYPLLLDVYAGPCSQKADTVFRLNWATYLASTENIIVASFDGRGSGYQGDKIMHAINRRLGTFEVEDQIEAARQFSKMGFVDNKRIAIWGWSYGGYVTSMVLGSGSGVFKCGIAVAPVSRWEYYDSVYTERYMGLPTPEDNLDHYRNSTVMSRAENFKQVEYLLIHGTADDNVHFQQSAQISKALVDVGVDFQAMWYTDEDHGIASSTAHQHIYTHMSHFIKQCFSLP
T3 sequence (Q86TI2 whole entry): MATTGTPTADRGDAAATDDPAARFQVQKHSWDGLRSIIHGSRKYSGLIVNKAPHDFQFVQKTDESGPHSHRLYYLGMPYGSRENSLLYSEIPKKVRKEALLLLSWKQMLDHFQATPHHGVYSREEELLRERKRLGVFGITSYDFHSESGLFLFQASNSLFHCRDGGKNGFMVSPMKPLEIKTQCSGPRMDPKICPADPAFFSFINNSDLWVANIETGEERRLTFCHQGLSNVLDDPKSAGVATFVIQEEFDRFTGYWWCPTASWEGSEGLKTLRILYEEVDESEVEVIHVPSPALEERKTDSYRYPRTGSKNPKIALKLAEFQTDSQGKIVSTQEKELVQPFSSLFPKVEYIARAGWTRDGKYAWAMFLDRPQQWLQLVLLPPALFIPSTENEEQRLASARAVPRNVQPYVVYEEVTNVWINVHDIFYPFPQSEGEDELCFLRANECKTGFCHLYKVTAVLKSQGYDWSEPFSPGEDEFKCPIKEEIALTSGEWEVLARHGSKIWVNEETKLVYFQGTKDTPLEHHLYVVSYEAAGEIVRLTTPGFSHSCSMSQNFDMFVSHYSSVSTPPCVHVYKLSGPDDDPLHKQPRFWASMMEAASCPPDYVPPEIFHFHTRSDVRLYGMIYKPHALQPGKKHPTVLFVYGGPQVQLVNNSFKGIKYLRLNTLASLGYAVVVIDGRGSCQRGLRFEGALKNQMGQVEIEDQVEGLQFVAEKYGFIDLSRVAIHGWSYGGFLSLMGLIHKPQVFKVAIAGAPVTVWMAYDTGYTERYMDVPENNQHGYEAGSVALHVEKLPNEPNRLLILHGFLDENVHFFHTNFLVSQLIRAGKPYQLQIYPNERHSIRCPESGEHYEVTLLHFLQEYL
T2 sequence (Q6V1X1 whole entry): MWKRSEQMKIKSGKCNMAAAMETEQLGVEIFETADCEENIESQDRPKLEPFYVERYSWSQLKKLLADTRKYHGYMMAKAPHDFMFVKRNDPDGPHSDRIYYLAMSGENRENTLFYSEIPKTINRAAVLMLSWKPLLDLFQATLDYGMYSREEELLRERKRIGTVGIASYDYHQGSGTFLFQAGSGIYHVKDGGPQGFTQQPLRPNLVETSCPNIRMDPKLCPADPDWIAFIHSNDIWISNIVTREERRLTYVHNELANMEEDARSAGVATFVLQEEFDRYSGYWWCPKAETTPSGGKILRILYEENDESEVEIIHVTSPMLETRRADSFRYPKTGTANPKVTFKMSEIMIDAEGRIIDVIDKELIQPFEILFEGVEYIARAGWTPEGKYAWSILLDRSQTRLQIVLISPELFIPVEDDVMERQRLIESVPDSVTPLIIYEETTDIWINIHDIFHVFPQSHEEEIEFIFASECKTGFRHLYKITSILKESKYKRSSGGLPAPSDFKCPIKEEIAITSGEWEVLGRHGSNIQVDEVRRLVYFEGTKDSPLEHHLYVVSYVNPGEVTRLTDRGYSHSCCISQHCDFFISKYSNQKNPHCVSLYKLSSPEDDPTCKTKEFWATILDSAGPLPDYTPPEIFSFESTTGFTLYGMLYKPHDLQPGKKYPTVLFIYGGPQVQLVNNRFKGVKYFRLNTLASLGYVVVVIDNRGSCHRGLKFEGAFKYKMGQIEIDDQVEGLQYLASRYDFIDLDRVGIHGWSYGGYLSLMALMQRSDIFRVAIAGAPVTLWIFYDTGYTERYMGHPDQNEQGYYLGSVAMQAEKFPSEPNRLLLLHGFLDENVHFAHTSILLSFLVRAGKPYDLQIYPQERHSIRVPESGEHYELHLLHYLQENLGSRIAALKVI

Row | Compound | IC50 (human DPP IV) [µM] | DPP 7 IC50 [1] | IC50 (human DPP 8) [µM] | IC50 (Human DPP 9) [µM] | IC50 (FAP) [µM] | IC50 [1] [µM] | DPP 9 IC50 (Human DPP 9) | FAP IC50 (FAP) | DPP 8 IC50 (human DPP 8)
1 | N#Cc1ccccc1Cn1c(N2CCC[C@@H](N)C2)nc2cc(C(=O)NCC3CC3)sc2c1=O [Compound 106, (R)-2-(3-aminopiperidin-1-yl)-3-(2-cyanobenzyl)-N-(cyclopropylmethyl)-4-oxo-3,4-dihydrothieno[3,2-d]pyrimidine-6-carboxamide] | 0.0183 | N.I. | 76.2 | 127 | 117 |  |  |  | 
2 | N#Cc1ccccc1Cn1c(N2CCC[C@@H](N)C2)nc2cc(C(=O)NCc3ccccc3F)sc2c1=O [Compound 109, (R)-2-(3-aminopiperidin-1-yl)-3-(2-cyanobenzyl)-N-(2-fluorobenzyl)-4-oxo-3,4-dihydrothieno[3,2-d]pyrimidine-6-carboxamide] | 0.0156 | N.I. | 62.1 | 91.8 | 101 |  |  |  | 
3 | N#Cc1ccccc1Cn1c(N2CCC[C@@H](N)C2)nc2cc(C(=O)NCc3cccc(C(F)(F)F)c3)sc2c1=O [Compound 120, (R)-2-(3-aminopiperidin-1-yl)-3-(2-cyanobenzyl)-4-oxo-N-(3-(trifluoromethyl)benzyl)-3,4-dihydrothieno[3,2-d]pyrimidine-6-carboxamide] | 0.0286 | N.I. | 53.8 | 49.7 | 87.4 |  |  |  | 
4 | CCNC(=O)c1cc2nc(N3CCC[C@@H](N)C3)n(Cc3ccccc3C#N)c(=O)c2s1 [Compound 113, (R)-2-(3-aminopiperidin-1-yl)-3-(2-cyanobenzyl)-N-ethyl-4-oxo-3,4-dihydrothieno[3,2-d]pyrimidine-6-carboxamide] | 0.0187 | N.I. | 166 | 303 | 173 |  |  |  | 
5 | COCCNC(=O)c1cc2nc(N3CCC[C@@H](N)C3)n(Cc3ccccc3C#N)c(=O)c2s1 [Compound 111, (R)-2-(3-aminopiperidin-1-yl)-3-(2-cyanobenzyl)-N-(2-methoxyethyl)-4-oxo-3,4-dihydrothieno[3,2-d]-pyrimidine-6-carboxamide] | 0.0189 | N.I. | 112 | 131 |  |  |  | N.I. | 
6 | N#Cc1ccccc1Cn1c(N2CCC[C@@H](N)C2)nc2c(C(=O)NC3CCCCC3)csc2c1=O [Compound 80, (R)-2-(3-aminopiperidin-1-yl)-3-(2-cyanobenzyl)-N-cyclohexyl-4-oxo-3,4-dihydrothieno[3,2-d]pyrimidine-7-carboxamide] | 0.026 | N.I. | 25.7 | 115 | 28.7 |  |  |  | 
7 | N#Cc1ccccc1Cn1c(N2CCC[C@@H](N)C2)nc2cc(C(=O)N3CCCCC3)sc2c1=O [Compound 108, (R)-2-((2-(3-aminopiperidin-1-yl)-4-oxo-6-(piperidine-1-carbonyl)thieno-[3,2-d]pyrimidin-3(4H)-yl)methyl)-benzonitrile] | 0.0118 | N.I. | 15.1 | 111 | 27 |  |  |  | 
8 | N#Cc1ccccc1Cn1c(N2CCC[C@@H](N)C2)nc2cc(C(=O)NC3CCCCC3)sc2c1=O [Compound 119, (R)-2-(3-aminopiperidin-1-yl)-3-(2-cyanobenzyl)-N-cyclohexyl-4-oxo-3,4-dihydrothieno[3,2-d]pyrimidine-6-carboxamide] | 0.0206 | N.I. | 94 |  | 113 |  | N.I. |  | 
9 | N#Cc1ccccc1Cn1c(N2CCC[C@@H](N)C2)nc2cc(COCc3ccccc3)sc2c1=O [Compound 94, (R)-2-((2-(3-aminopiperidin-1-yl)-6-((benzyloxy)methyl)-4-oxothieno-[3,2-d]pyrimidin-3(4H)-yl)methyl)-benzonitrile] | 0.0104 | N.I. | 34.2 | 55 | 96.8 |  |  |  | 
10 | COC(=O)c1cc2nc(N3CCC[C@@H](N)C3)n(Cc3ccccc3C#N)c(=O)c2s1 [Compound 38, (R)-methyl 2-(3-aminopiperidin-1-yl)-3-(2-cyanobenzyl)-4-oxo-3,4-dihydrothieno[3,2-d]pyrimidine-6-carboxylate] | 0.0115 | N.I. |  |  |  |  | N.I. | N.I. | N.I.

Continued, values first:

Row | IC50 (human DPP IV) [µM] | DPP 7 IC50 [1] | IC50 (human DPP 8) [µM] | IC50 (Human DPP 9) [µM] | IC50 (FAP) [µM] | IC50 [1] [µM] | DPP 9 IC50 (Human DPP 9) | FAP IC50 (FAP) | DPP 8 IC50 (human DPP 8) | Compound
11 | 0.0332 |  | 5.81 | 39.7 | 9.38 | 52 |  |  |  | Cc1ccc(CNC(=O)c2csc3c(=O)n(Cc4ccccc4C#N)c(N4CCC[C@@H](N)C4)nc23)cc1 [Compound 64, (R)-2-(3-aminopiperidin-1-yl)-3-(2-cyanobenzyl)-N-(4-methylbenzyl)-4-oxo-3,4-dihydrothieno[3,2-d]-pyrimidine-7-carboxamide]
12 | 0.0133 | N.I. | 36.8 | 110 | 57.1 |  |  |  |  | N#Cc1ccccc1Cn1c(N2CCC[C@@H](N)C2)nc2c(C(=O)NCCO)csc2c1=O [Compound 60, (R)-2-(3-aminopiperidin-1-yl)-3-(2-cyanobenzyl)-N-(2-hydroxyethyl)-4-oxo-3,4-dihydrothieno[3,2-d]-pyrimidine-7-carboxamide]
13 | 0.0208 | N.I. | 318 |  | 121 |  | N.I. |  |  | CC(=O)Nc1csc2c(=O)n(Cc3ccccc3C#N)c(N3CCC[C@@H](N)C3)nc12 [Compound 86, (R)-N-(2-(3-aminopiperidin-1-yl)-3-(2-cyanobenzyl)-4-oxo-3,4-dihydrothieno-[3,2-d]pyrimidin-7-yl)acetamide]
14 | 0.0302 | N.I. | 44.8 | 137 | 75.5 |  |  |  |  | N#Cc1ccccc1Cn1c(N2CCC[C@@H](N)C2)nc2c(C(=O)NC3CC3)csc2c1=O [Compound 65, (R)-2-(3-aminopiperidin-1-yl)-3-(2-cyanobenzyl)-N-cyclopropyl-4-oxo-3,4-dihydrothieno[3,2-d]pyrimidine-7-carboxamide]
15 | 0.0151 | N.I. | 30.1 | 149 | 39.4 |  |  |  |  | CC(C)NC(=O)c1csc2c(=O)n(Cc3ccccc3C#N)c(N3CCC[C@@H](N)C3)nc12 [Compound 72, (R)-2-(3-aminopiperidin-1-yl)-3-(2-cyanobenzyl)-N-isopropyl-4-oxo-3,4-dihydrothieno[3,2-d]pyrimidine-7-carboxamide]
16 | 0.0492 | N.I. | 12.3 | 54.8 | 37.4 |  |  |  |  | COC(=O)[C@H](Cc1ccc(O)cc1)NC(=O)c1csc2c(=O)n(Cc3ccccc3C#N)c(N3CCC[C@@H](N)C3)nc12 [Compound 62, (S)-methyl 2-(2-((R)-3-aminopiperidin-1-yl)-3-(2-cyanobenzyl)-4-oxo-3,4-dihydrothieno[3,2-d]pyrimidine-7-carboxamido)-3-(4-hydroxyphenyl)-propanoate]
17 | 0.0106 | N.I. | 18.4 | 92.9 | 30.6 |  |  |  |  | COCCNC(=O)c1csc2c(=O)n(Cc3ccccc3C#N)c(N3CCC[C@@H](N)C3)nc12 [Compound 74, (R)-2-(3-aminopiperidin-1-yl)-3-(2-cyanobenzyl)-N-(2-methoxyethyl)-4-oxo-3,4-dihydrothieno[3,2-d]pyrimidine-7-carboxamide]
